According to patent US20150105252A1, “SUBSTITUTED PYRAZOLES AS HERBICIDES” (E I DU PONT DE NEMOURS AND COMPANY, priority 2013, published 2015):

Columns and labels:
rice = assay: Test B flood; assay type: in vivo, Oryza sativa; conditions: 250 g ai/ha, visual rating on 0 to 100 scale (0 no effect, 100 complete control), 13 to 15 days
How it was run: (§1)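 Visual ratings on a 0–100 scale, where 0 means no effect and 100 means complete control, were assigned by comparison with controls 13 to 15 days after treatment. Compounds went into paddy water over 2-leaf plants flooded to 3 cm.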

corn [1] = assay: Test A postemergence; assay type: in vivo, Zea mays
How it was run: (§2)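 Visual injury ratings, 0 = no effect to 100 = complete control, taken about 10 days after treatment against untreated controls. Test chemicals, in a non-phytotoxic surfactant-containing solvent, were sprayed onto soil preemergence or onto one- to two-leaf plants (2–10 cm) postemergence, in loam–sand soil under greenhouse conditions.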

crabgrass, large [2] = assay: Test A preemergence; assay type: in vivo, Digitaria sanguinalis
How it was run: as §2

wheat [3] = assay: Test A postemergence; assay type: in vivo, Triticum aestivum
How it was run: as §2

morningglory [4] = assay: Test A postemergence; assay type: in vivo, Ipomoea spp.
How it was run: as §2

morningglory [5] = assay: Test A preemergence; assay type: in vivo, Ipomoea spp.
How it was run: as §2

foxtail, giant [6] = assay: Test A preemergence; assay type: in vivo, Setaria faberii
How it was run: as §2

velvetleaf [7] = assay: Test A preemergence; assay type: in vivo, Abutilon theophrasti
How it was run: as §2

barnyardgrass [8] = assay: Test B flood; assay type: in vivo, Echinochloa crus-galli; conditions: 250 g ai/ha, visual rating on 0 to 100 scale (0 no effect, 100 complete control), 13 to 15 days
How it was run: as §1

pigweed [9] = assay: Test A preemergence; assay type: in vivo, Amaranthus retroflexus
How it was run: as §2

sedge, umbrella = assay: Test B flood; assay type: in vivo, Cyperus difformis; conditions: 250 g ai/ha, visual rating on 0 to 100 scale (0 no effect, 100 complete control), 13 to 15 days
How it was run: as §1

barnyardgrass [10] = assay: Test A preemergence; assay type: in vivo, Echinochloa crus-galli
How it was run: as §2

barnyardgrass [11] = assay: Test A postemergence; assay type: in vivo, Echinochloa crus-galli
How it was run: as §2

velvetleaf [12] = assay: Test A postemergence; assay type: in vivo, Abutilon theophrasti
How it was run: as §2

crabgrass, large [13] = assay: Test A postemergence; assay type: in vivo, Digitaria sanguinalis
How it was run: as §2

pigweed [14] = assay: Test A postemergence; assay type: in vivo, Amaranthus retroflexus
How it was run: as §2

foxtail, giant [15] = assay: Test A postemergence; assay type: in vivo, Setaria faberii
How it was run: as §2

ducksalad = assay: Test B flood; assay type: in vivo, Heteranthera limosa; conditions: 250 g ai/ha, visual rating on 0 to 100 scale (0 no effect, 100 complete control), 13 to 15 days
How it was run: as §1

wheat [16] = assay: Test A preemergence; assay type: in vivo, Triticum aestivum; conditions: preemergence
How it was run: as §2

corn [17] = assay: Test A preemergence; assay type: in vivo, Zea mays
How it was run: as §2

[18] = Postemergence, 500 g ai/ha, visual rating after approx. 10 days, 0 to 100 scale (0 no effect, 100 complete control)
[19] = postemergence, 125 g ai/ha, about 10 days, visual rating on 0 to 100 scale (0 no effect, 100 complete control)
[20] = preemergence, 125 g ai/ha, visual injury, 0 to 100 scale, approx. 10 days
[21] = preemergence, 500 g ai/ha, visual injury after approx. 10 days, 0 to 100 scale (0 no effect, 100 complete control)
[22] = 125 g ai/ha, visual injury, 0 to 100 scale, approx. 10 days
[23] = 500 g ai/ha, visual injury after approx. 10 days, 0 to 100 scale (0 no effect, 100 complete control)
[24] = Postemergence, 125 g ai/ha, 0 to 100 scale, 0 no effect, 100 complete control
[25] = Postemergence, 500 g ai/ha, 0 to 100 scale (0 no effect, 100 complete control)
[26] = preemergence, 125 g ai/ha, visual injury approx. 10 days after treatment
[27] = Preemergence, 500 g ai/ha, 0 to 100 scale, 0 no effect, 100 complete control

CCCNC(=O)c1cc(CC)n(Cc2cc(C(F)(F)F)nn2CC)n1 [Compound 117]
Plant response rating, Rice (rice): 20 | Corn plant response rating (corn [1]; [18]): 50 | Corn plant response rating (corn [1]; [19]): 20 | Crabgrass, Large plant response rating (crabgrass, large [2]; [20]): 90 | Crabgrass, Large plant response rating (crabgrass, large [2]; [21]): 100 | Wheat plant response rating (wheat [3]; [18]): 0 | Wheat plant response rating (wheat [3]; [19]): 0 | Morningglory plant response rating (morningglory [4]; [18]): 90 | Morningglory plant response rating (morningglory [4]; [19]): 60 | Morningglory plant response rating (morningglory [5]; [20]): 30 | Morningglory plant response rating (morningglory [5]; [21]): 100 | Foxtail, Giant plant response rating (foxtail, giant [6]; [20]): 70 | Foxtail, Giant plant response rating (foxtail, giant [6]; [21]): 100 | Velvetleaf plant response rating (velvetleaf [7]; [20]): 0 | Velvetleaf plant response rating (velvetleaf [7]; [21]): 0 | Plant response rating, Barnyardgrass (barnyardgrass [8]): 0 | Pigweed plant response rating (pigweed [9]; [20]): 90 | Pigweed plant response rating (pigweed [9]; [21]): 100 | Plant response rating, Sedge, Umbrella (sedge, umbrella): 75 | Barnyardgrass plant response rating (barnyardgrass [10]; [20]): 30 | Barnyardgrass plant response rating (barnyardgrass [10]; [21]): 80 | Barnyardgrass plant response rating (barnyardgrass [11]; [18]): 80 | Barnyardgrass plant response rating (barnyardgrass [11]; [19]): 40 | Velvetleaf plant response rating (velvetleaf [12]; [18]): 80 | Velvetleaf plant response rating (velvetleaf [12]; [19]): 40 | Crabgrass, Large plant response rating (crabgrass, large [13]; [18]): 80 | Crabgrass, Large plant response rating (crabgrass, large [13]; [19]): 20 | Pigweed plant response rating (pigweed [14]; [18]): 80 | Pigweed plant response rating (pigweed [14]; [19]): 50 | Foxtail, Giant plant response rating (foxtail, giant [15]; [18]): 90 | Foxtail, Giant plant response rating (foxtail, giant [15]; [19]): 20 | Plant response rating, Ducksalad (ducksalad): 50 | Wheat plant response rating (wheat [16]; [22]): 0 | Wheat plant response rating (wheat [16]; [23]): 0 | Corn plant response rating (corn [17]; [20]): 0 | Corn plant response rating (corn [17]; [21]): 10

CCCNC(=O)c1cc(CC)n(Oc2cccc(C(F)(F)F)c2)n1 [Compound 216]
Plant response rating, Rice (rice): 0 | Corn plant response rating (corn [1]; [24]): 0 | Corn plant response rating (corn [1]; [25]): 50 | Crabgrass, Large plant response rating (0 to 100 scale) (crabgrass, large [2]; [26]): 60 | Crabgrass, Large plant response rating (crabgrass, large [2]; [21]): 90 | Wheat plant response rating (wheat [3]; [24]): 0 | Wheat plant response rating (wheat [3]; [25]): 0 | Morningglory plant response rating (morningglory [4]; [24]): 20 | Morningglory plant response rating (morningglory [4]; [25]): 70 | Morningglory plant response rating (0 to 100 scale) (morningglory [5]; [26]): 0 | Foxtail, Giant plant response rating (0 to 100 scale) (foxtail, giant [6]; [26]): 10 | Foxtail, Giant plant response rating (foxtail, giant [6]; [21]): 40 | Velvetleaf plant response rating (0 to 100 scale) (velvetleaf [7]; [26]): 0 | Plant response rating, Barnyardgrass (barnyardgrass [8]): 0 | Pigweed plant response rating (0 to 100 scale) (pigweed [9]; [26]): 0 | Plant response rating, Sedge, Umbrella (sedge, umbrella): 30 | Barnyardgrass plant response rating (0 to 100 scale, 0 is no effect, 100 is complete control) (barnyardgrass [10]; [26]): 0 | Barnyardgrass plant response rating (barnyardgrass [10]; [21]): 80 | Barnyardgrass plant response rating (barnyardgrass [11]; [24]): 0 | Barnyardgrass plant response rating (barnyardgrass [11]; [25]): 70 | Velvetleaf plant response rating (velvetleaf [12]; [24]): 0 | Velvetleaf plant response rating (velvetleaf [12]; [25]): 40 | Crabgrass, Large plant response rating (crabgrass, large [13]; [24]): 20 | Crabgrass, Large plant response rating (crabgrass, large [13]; [25]): 70 | Pigweed plant response rating (pigweed [14]; [24]): 20 | Pigweed plant response rating (pigweed [14]; [25]): 30 | Foxtail, Giant plant response rating (foxtail, giant [15]; [24]): 0 | Foxtail, Giant plant response rating (foxtail, giant [15]; [25]): 40 | Plant response rating, Ducksalad (ducksalad): 20 | Wheat plant response rating (0 to 100 scale) (wheat [16]; 125 g ai/ha, visual injury approx. 10 days after treatment): 0 | Corn plant response rating (0 to 100 scale) (corn [17]; [26]): 0 | Corn plant response rating (corn [17]; [21]): 10

Cc1cc(C(=O)NCC(F)(F)F)nn1Oc1ccnc(C(F)(F)F)c1 [Compound 79]
Plant response rating, Rice (rice): 0 | Corn plant response rating (corn [1]; [18]): 10 | Corn plant response rating (corn [1]; [19]): 10 | Crabgrass, Large plant response rating (crabgrass, large [2]; [27]): 90 | Crabgrass, Large plant response rating (crabgrass, large [2]; [20]): 60 | Wheat plant response rating (wheat [3]; [18]): 20 | Wheat plant response rating (wheat [3]; [19]): 0 | Morningglory plant response rating (morningglory [4]; [18]): 70 | Morningglory plant response rating (morningglory [4]; [19]): 30 | Morningglory plant response rating (morningglory [5]; [27]): 50 | Morningglory plant response rating (morningglory [5]; [20]): 0 | Foxtail, Giant plant response rating (foxtail, giant [6]; [27]): 90 | Foxtail, Giant plant response rating (foxtail, giant [6]; [20]): 10 | Velvetleaf plant response rating (velvetleaf [7]; [27]): 60 | Velvetleaf plant response rating (velvetleaf [7]; [20]): 0 | Plant response rating, Barnyardgrass (barnyardgrass [8]): 0 | Pigweed plant response rating (pigweed [9]; [27]): 100 | Pigweed plant response rating (pigweed [9]; [20]): 30 | Plant response rating, Sedge, Umbrella (sedge, umbrella): 0 | Barnyardgrass plant response rating (barnyardgrass [10]; [27]): 70 | Barnyardgrass plant response rating (barnyardgrass [10]; [20]): 10 | Barnyardgrass plant response rating (barnyardgrass [11]; [24]): 0 | Barnyardgrass plant response rating (barnyardgrass [11]; [18]): 30 | Velvetleaf plant response rating (velvetleaf [12]; [18]): 50 | Velvetleaf plant response rating (velvetleaf [12]; [19]): 40 | Crabgrass, Large plant response rating (crabgrass, large [13]; [18]): 60 | Crabgrass, Large plant response rating (crabgrass, large [13]; [19]): 20 | Pigweed plant response rating (pigweed [14]; [18]): 60 | Pigweed plant response rating (pigweed [14]; [19]): 40 | Foxtail, Giant plant response rating (foxtail, giant [15]; [18]): 30 | Foxtail, Giant plant response rating (foxtail, giant [15]; [19]): 10 | Plant response rating, Ducksalad (ducksalad): 0 | Wheat plant response rating (wheat [16]; [22]): 0 | Wheat plant response rating (wheat [16]; [23]): 20 | Corn plant response rating (corn [17]; [27]): 0 | Corn plant response rating (corn [17]; [20]): 0

CCc1cc(C(=O)NC(C)C)nn1Cc1cc(C(F)(F)F)nn1CC [Compound 120]
Plant response rating, Rice (rice): 0 | Corn plant response rating (corn [1]; [25]): 60 | Corn plant response rating (corn [1]; [19]): 30 | Crabgrass, Large plant response rating (crabgrass, large [2]; [20]): 100 | Crabgrass, Large plant response rating (crabgrass, large [2]; [21]): 100 | Wheat plant response rating (wheat [3]; [25]): 30 | Wheat plant response rating (wheat [3]; [19]): 0 | Morningglory plant response rating (morningglory [4]; [25]): 100 | Morningglory plant response rating (morningglory [4]; [19]): 80 | Morningglory plant response rating (morningglory [5]; [20]): 70 | Morningglory plant response rating (morningglory [5]; [21]): 100 | Foxtail, Giant plant response rating (foxtail, giant [6]; [20]): 60 | Foxtail, Giant plant response rating (foxtail, giant [6]; [21]): 90 | Velvetleaf plant response rating (velvetleaf [7]; [20]): 10 | Velvetleaf plant response rating (velvetleaf [7]; [21]): 70 | Plant response rating, Barnyardgrass (barnyardgrass [8]): 0 | Pigweed plant response rating (pigweed [9]; [20]): 70 | Pigweed plant response rating (pigweed [9]; [21]): 90 | Plant response rating, Sedge, Umbrella (sedge, umbrella): 80 | Barnyardgrass plant response rating (barnyardgrass [10]; [20]): 20 | Barnyardgrass plant response rating (barnyardgrass [10]; [21]): 100 | Barnyardgrass plant response rating (barnyardgrass [11]; [25]): 90 | Barnyardgrass plant response rating (barnyardgrass [11]; [19]): 30 | Velvetleaf plant response rating (velvetleaf [12]; [25]): 80 | Velvetleaf plant response rating (velvetleaf [12]; [19]): 30 | Crabgrass, Large plant response rating (crabgrass, large [13]; [25]): 80 | Crabgrass, Large plant response rating (crabgrass, large [13]; [19]): 30 | Pigweed plant response rating (pigweed [14]; [25]): 80 | Pigweed plant response rating (pigweed [14]; [19]): 50 | Foxtail, Giant plant response rating (foxtail, giant [15]; [25]): 70 | Foxtail, Giant plant response rating (foxtail, giant [15]; [19]): 30 | Plant response rating, Ducksalad (ducksalad): 40 | Wheat plant response rating (wheat [16]; [22]): 0 | Wheat plant response rating (wheat [16]; [23]): 40 | Corn plant response rating (corn [17]; [20]): 20 | Corn plant response rating (corn [17]; [21]): 50
